The values below come from EP0444482B1, “Oxetanones” (F. HOFFMANN-LA ROCHE AG, priority 1990, dated 1991).

Series [1] in a line: Acute toxicity after a single oral administration. To be noted: mouse, in vivo, mice, read-out: akute Toxizität. The method, then:
Die akute Toxizität (nach einmaliger oraler Verabreichung an Mäusen) beträgt mehr als 5000 mg/kg für die Produkte der Beispiele 3d, 3h, 3i, 3l, 4a und 10a, b, e und f.

The next series addresses T1, Schweinepankreaslipase (Sus scrofa, UniProt P00591).
T1 sequence (P00591 1-450): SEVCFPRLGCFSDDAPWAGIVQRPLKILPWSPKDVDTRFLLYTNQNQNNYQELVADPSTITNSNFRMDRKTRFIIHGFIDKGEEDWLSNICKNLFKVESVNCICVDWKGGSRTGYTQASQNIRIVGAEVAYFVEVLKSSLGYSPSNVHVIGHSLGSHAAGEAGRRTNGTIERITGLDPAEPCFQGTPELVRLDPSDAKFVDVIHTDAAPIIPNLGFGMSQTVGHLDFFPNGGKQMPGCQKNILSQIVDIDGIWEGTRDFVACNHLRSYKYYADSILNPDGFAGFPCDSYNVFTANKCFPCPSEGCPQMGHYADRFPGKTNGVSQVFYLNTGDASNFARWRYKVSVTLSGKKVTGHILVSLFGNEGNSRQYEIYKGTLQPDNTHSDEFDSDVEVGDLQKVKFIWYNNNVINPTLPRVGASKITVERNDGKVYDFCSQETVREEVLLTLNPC
Kind of series: Inhibition of pancreatic lipase (titrimetric measurement of oleic acid released from triolein). Format: biochemical, Schwein. As to conditions: substrate triolein emulsion, pH 8, NaOH consumption over 10 min, 1-3 µg lipase; concentration giving half-maximal inhibition of lipase activity; read-out: IC₅₀ (converted). The method, then: Die Hemmung der Pankreaslipase durch die Oxetanone der Formel I kann experimentell gezeigt werden, indem man die bei der Spaltung von Triolein durch Schweinepankreaslipase freigesetzte Oelsäure titrimetrisch erfasst. Zu einer Emulsion, welche 1 mM Taurodeoxycholat, 9 mM Taurocholat, 0,1 mM Cholesterin, 1 mM Eilezithin, 15 mg/ml BSA, 2 mM Tris-HCl, 100 mM Natriumchlorid, 1 mM Calciumchlorid und das Substrat Triolein enthält, gibt man die in Aethanol oder Dimethylsulfoxid (10% des Emulsionsvolumens) gelöste Verbindung der Formel I und startet die Reaktion durch Zugabe von 1-3 µg Schweinepankreaslipase. Das pH wird während der Reaktion durch Zugabe von Natronlauge bei 8 gehalten. Aus dem während 10 Minuten ermittelten Verbrauch an Natronlauge wird die IC₅₀ berechnet. Die IC₅₀ ist diejenige Konzentration, bei der die Lipaseaktivität halbmaximal gehemmt wird. Die nachfolgende Tabelle enthält die für die Verbindungen der Formel I ermittelten IC₅₀-Werte in µg/ml.

As to `CCCCCCCCCCCCCCCCC[C@@H](C[C@@H]1OC(=O)[C@H]1CC)OC(=O)CC(N)=O` [Beispiel 10b, (S)-1-[[(2S,3S)-3-Aethyl-4-oxo-2-oxetanyl]methyl]octadecylmalonamat], the LD50 in series [1] is over 5000 mg/kg. For the same compound, the IC50 on Schweinepankreaslipase was 89.8 nM.

Take `CCCCCCCCCCC[C@@H](C[C@@H]1OC(=O)[C@H]1CCCCCC)OC(=O)C(CC)(CC)C(N)=O` [Beispiel 3l, (S)-1-[[(2S,3S)-3-Hexyl-4-oxo-2-oxetanyl]methyl]dodecyl-2,2-diäthylmalonamat]: the LD50 in series [1] is over 5000 mg/kg. The IC50 on Schweinepankreaslipase was 1570 nM.

For the compound `CCCCCCCCCCC[C@@H](C[C@@H]1OC(=O)[C@H]1CCCCCC)OC(=O)C(C)(C)C(N)=O` [Beispiel 3h, (S)-1-[[(2S,3S)-3-Hexyl-4-oxo-2-oxetanyl]methyl]dodecyl-2,2-dimethylmalonamat], the LD50 in series [1] is over 5000 mg/kg. Further, on Schweinepankreaslipase, the IC50 was 4490 nM.

As to `CCCCCCCCCCC[C@@H](C[C@@H]1OC(=O)[C@H]1CCCCCC)OC(=O)C(N)=O` [Beispiel 3d, (S)-1-[[(2S,3S)-3-Hexyl-4-oxo-2-oxetanyl]methyl]dodecyloxamat], in series [1], the LD50 is over 5000 mg/kg. At Schweinepankreaslipase, the IC50 was 2110 nM.

For `CCCCCCCCCCCCCCCCC[C@@H](C[C@@H]1OC(=O)[C@H]1CC)OC(=O)CCC(N)=O` [Beispiel 10f, (S)-1-[[(2S,3S)-3-Aethyl-4-oxo-2-oxetanyl]methyl]octadecyl-succinamat], the LD50 in series [1] is over 5000 mg/kg. The IC50 at Schweinepankreaslipase was 664 nM.

Regarding `CCCCCCCCCCCCCCCCC[C@@H](C[C@@H]1OC(=O)[C@H]1CC)OC(=O)C(N)=O` [Beispiel 10a, (S)-1-[[(2S,3S)-3-Aethyl-4-oxo-2-oxetanyl]methyl]octadecyloxamat], in series [1], the LD50 is over 5000 mg/kg. The IC50 on Schweinepankreaslipase was 183 nM.
